Data on four compounds can be found in US9526786B2, “Thermostabilization of proteins” (The Trustee of Columbia University in the City of New York, priority 2007, dated 2016).

Data set [1] addresses T1, CocE (Rhodococcus sp., UniProt Q9L9D7).
T1 construct: 6xHis (C); made in house; host or cells: E. coli BL-21 Gold (DE3), pET-22b(+)
T1 sequence (Q9L9D7 1-574): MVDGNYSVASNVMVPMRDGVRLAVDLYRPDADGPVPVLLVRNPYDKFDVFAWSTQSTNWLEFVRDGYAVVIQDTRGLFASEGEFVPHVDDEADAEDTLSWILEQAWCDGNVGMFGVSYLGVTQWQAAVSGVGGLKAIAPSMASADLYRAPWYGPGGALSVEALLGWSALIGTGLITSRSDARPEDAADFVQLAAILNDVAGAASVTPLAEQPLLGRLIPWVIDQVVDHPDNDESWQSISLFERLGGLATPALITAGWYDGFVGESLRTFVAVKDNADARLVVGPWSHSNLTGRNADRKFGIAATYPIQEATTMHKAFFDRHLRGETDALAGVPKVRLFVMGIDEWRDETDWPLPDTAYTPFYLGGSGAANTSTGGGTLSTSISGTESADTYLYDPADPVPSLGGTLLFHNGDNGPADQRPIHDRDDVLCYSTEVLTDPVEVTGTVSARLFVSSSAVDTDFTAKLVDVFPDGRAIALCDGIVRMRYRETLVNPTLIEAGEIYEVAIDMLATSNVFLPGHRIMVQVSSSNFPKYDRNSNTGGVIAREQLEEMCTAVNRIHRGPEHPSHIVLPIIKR
The class given is biochemical, Rhodococcus sp. MB 1. The protocol:
Analysis of CocE action on cocaine cleavage is performed by utilizing the spectroscopic properties of cocaine, which maximally absorbs light at a 240 nm wavelength. CocE activity is measured by monitoring for a decrease in signal at A240, using various concentrations of cocaine, and determining the initial rate of the decrease. From these values the Vmax of the enzyme can be determined. By pre-incubating the enzyme at 37° C. for various times before monitoring for activity, the half life of CocE at 37° C. can be calculated.
The initial rates (of decay) were determined by following the change in the intrinsic absorbance of cocaine at 240 nm (6700 M^1 cm^1)(Xie et al., 1999) using a SpectraMax Plus 384 UV plate reader (Molecular Devices, Sunnyvale, Calif.) using SOFTmax Pro software (Version 3.1.2). The reaction was initiated by adding 100 μL of a 2× enzyme solution (100 mM phosphate buffer, pH 7.4 and 300 mM NaCl) to 100 μL of a 2× cocaine solution (50 μg/mL enzyme, 100 mM Phosphate Buffer, pH 7.4 and 300 mM NaCl). All assays were performed with 100 μM DTT unless indicated otherwise. Final cocaine concentrations were as follows: 125, 62.5, 31.25, 15.63, 7.81, 3.91, 1.95, and 0.977 μM. Vmax and Km values were calculated using Prism (GraphPad Software, San Diego). For stability measurements, wild type and mutant enzymes were diluted to 2× concentration and incubated at 37° C. for the times indicated. At the end of each time point, an aliquot was removed and kinetic behavior was observed as outlined above.
(§1) In vitro kinetic assays. […] Initial rates were then used to determine Michaelis-Menten parameters. To assess thermal stability, enzyme preparations were preincubated at 37° C. for various lengths of time, prior to measurement of residual activities (Table 1 and FIG. 23).

In data set [2] the target is T1, CocE. Put plainly: Effect of DTT on decay of CocE activity at 37° C. It counts as biochemical, Rhodococcus sp. MB 1. To be noted: DTT 10 mM. Here is the method:
as §1

For the next data set, the target named is T2, CocE WT (Rhodococcus sp., UniProt Q9L9D7).
T2 construct: 6xHis (C); made in house; host or cells: E. coli BL-21 Gold (DE3), pET-22b(+)
T2 sequence (Q9L9D7 1-574): T1 sequence (Q9L9D7 1-574)
Put plainly: Inhibition of CocE WT aggregate formation, non-denaturing gel, 1 hour at 37° C. The arrangement: species or system Rhodococcus sp. MB 1. To be noted: read-out: 50% stabilization concentration. The source says:
To further study CocE stabilization with small molecules, other inhibitors of the CocE cleavage reaction were considered.

The next data set has as its target T3, WT CocE (Rhodococcus sp., UniProt Q9L9D7).
T3 sequence (Q9L9D7 1-574): T1 sequence (Q9L9D7 1-574)
To be noted: for melting temperature of WT CocE in presence of compound: excess benzoic acid, 5× molarity phenylboronic acid, 6031818. Here is the method: Further characterization of the stability of wild type (WT) CocE and thermostable mutants was performed through circular dichroism, which detects small changes in protein conformation and structure. Analysis by repeated CD measurements at increasing temperatures allows analysis of the thermodynamics and melting temperature (TM) of the protein, so long as the melting is reversible (i.e. the protein resumes it's original conformation upon cooling). […] However CD is still of value in determining the temperature to unfolding.

The target in another data set is T4, CocE mutant L169K (Rhodococcus sp., UniProt Q9L9D7, L169K).
T4 construct: 6xHis (C); made in house; host or cells: E. coli BL-21 Gold (DE3), pET-22b(+)
T4 sequence (Q9L9D7 1-574 L169K): T1 sequence (Q9L9D7 1-574) with L169K
The data set can be described thus: Circular dichroism melting of L169K in the presence of phenylboronic acid. It counts as physicochemical, Rhodococcus sp. MB 1. The protocol: CD analysis of another CocE mutant, L169K, established a ˜65° C. melting temperature alone, and ˜85° C. melting temperature in the presence of phenylboronic acid (FIG. 18), i.e. phenylboronic acid conferred an additional 20° C. melting to the already high original melting temperature for L169K.

Data set [3] concerns the target T1, CocE. The data set can be described thus: Screen for stabilization of CocE: 1 hour at 37° C., then 4-nitrophenyl acetate cleavage. To be noted: forty compounds tested. It counts as biochemical, Rhodococcus sp. MB 1. The protocol:
However all of these small molecules inhibited enzyme activity to certain degrees. It was evaluated whether there might exist a small molecule that could prevent CocE aggregation, without inhibiting enzyme activity. Such a molecule could be used as a stabilizer in vitro, e.g., during enzyme preparation, and in vivo. An assay was designed to screen a library of 20,000 small molecules for stabilization of CocE. In that assay, the enzyme is mixed with the compounds in a 96-well plate format, and then incubated at 37° C. for one hour. […] After 37° C. incubation, the enzyme/compound mixtures are tested for the ability to cleave 4-nitrophenyl acetate (FIG. 8). Only compounds stabilized would be able to cleave after this incubation period.
Forty compounds were first tested. The compounds were assayed in duplicate with appropriate controls. A duplicate plate (without enzyme) was performed as a negative control, to check for compounds able to cause an increase in 400 nm absorbance in the absence of CocE. […] Some were able to do this in the absence of CocE. These were discarded as false positives.
FIG. 9 is a plot of the initial rate of 4-nitrophenyl acetate cleavage for all compounds, after the background “no enzyme” cleavage was subtracted. […]

For data set [4], the target named is T1, CocE. The class given is biochemical, Rhodococcus sp. MB 1. Here is the method:
CocE is also able to cleave another substrate, 4-nitrophenyl acetate (FIG. 3). Cleavage is monitored by detection of the appearance of the 4-nitrophenol reaction product, which absorbs at 400 nm.
Further spectrophotometric analysis of cocaine stabilization was performed, by analyzing the ability of CocE to cleave 4-nitrophenyl acetate, after preincubation at 37° C. for various times, in the presence of various concentrations of cocaine. […] However, preincubation of CocE at the higher concentrations for various times at 37° C. indicated the enzyme was stabilized enough to be able to cleave the 4-nitrophenyl substrate (FIG. 5).
This is another data set of the same source.

Setting [5] is: cocaine: 62.5 and 125 μM, benzoic acid: higher concentrations.

Where a chain is given by its changes, count along the chain named. “Also recorded” adds a separate entry of the source. Read-outs that look alike come from different tables or passages of the source.

The compound `O[C@@H](CS)[C@@H](O)CS` [DTT] had a Ki at CocE [1] (cocaine hydrolysis, mixed competitive and non-competitive) of about 380 µM. The compound further displayed an IC50 against CocE [1] (wt-CocE) of about 390 µM. On CocE [2], the “effect on decay / τinact of wt-CocE” value is “shortens; also recorded: accelerate the decay”.
On to `OB(O)c1ccccc1` [Phenylboronic acid, phenylboronic acid], for which the EC50 at CocE WT was about 0.2 µM. Also, the “melting temperature higher than the T172R mutant” value on WT CocE (WT CocE with compound) is “more than 30 degrees”. Besides, the “melting temperature of WT CocE in presence of compound” value on WT CocE turned out to be 73 °C. On CocE mutant L169K, the “additional melting conferred to L169K” value was 20 °C and the “melting temperature of L169K in presence of compound” value is about 85 °C.
Take `CCOc1ccccc1N(CC(=O)N1CCCCC1)S(=O)(=O)c1ccccc1` [compound 6031818]: the “effectiveness in stabilization screen” value on CocE [3] was “most effective”. Also, on CocE [1], the “inhibition of cocaine cleavage” value was “does not inhibit”. Also, the “melting temperature of WT CocE in presence of compound” value on WT CocE was about 42 °C. The “inhibition of 4-nitrophenyl acetate cleavage” value against CocE [4] is 16 µM; against CocE [4] (setting [5]), “weak inhibitor”.
As to `COc1ccc(OC)c(N(CC(=O)N2CCCCC2)S(=O)(=O)c2ccccc2)c1` [compound 6169221], the “effectiveness in stabilization screen” value at CocE [3] is “effective”. For the same compound, the “inhibition of cocaine cleavage” value on CocE [1] is given as “did not inhibit”. Besides, on CocE [4] (setting [5]), the “inhibition of 4-nitrophenyl acetate cleavage” value was “did not inhibit”.
